Results as given in ChEMBL document CHEMBL6114992, “Design, synthesis, biological evaluation, and mechanism of action of new pyrazines as anticancer agents in vitro and in vivo” (Bioorg Med Chem, 2025).
Each block holds one compound with its values, some of them ahead of it. Calls of active or inactive are those of the source. The calls are words filed in the database; no cut-off is given here.

Key:
SK-OV-3 [1] = assay: Downregulation of c-Myc expression in human SK-OV-3 cells incubated for 48 hrs by Western blot analysis; format: functional, cell-based; details: dose 0.5-2.5 µM
SK-OV-3 [2] = assay: Induction of apoptosis in human SK-OV-3 cells assessed as viable cells at 1 uM incubated for 48 hrs by Annexin V-FITC/PI staining based flow cytometry (reference value: 90.97 %); format: functional; details: read-out: Activity
THP-1 [3] = assay: Downregulation of Bcl-XL expression in human THP-1 cells incubated for 48 hrs by Western blot analysis; format: functional, cell-based; details: dose 0.5-2.5 µM
SK-OV-3 [4] = assay: Downregulation of TAZ expression in human SK-OV-3 cells incubated for 48 hrs by Western blot analysis; format: functional, cell-based; details: dose 0.5-2.5 µM
KG-1 [5] = assay: Upregulation of p21 expression in human KG-1 cells incubated for 48 hrs by Western blot analysis; format: functional, cell-based; details: dose 0.5-2.5 µM
KG-1 [6] = assay: Downregulation of YAP1 expression in human KG-1 cells incubated for 48 hrs by Western blot analysis; format: functional, cell-based; details: dose 0.5-2.5 µM
KG-1 [7] = assay: Downregulation of Bcl-XL expression in human KG-1 cells incubated for 48 hrs by Western blot analysis; format: functional, cell-based; details: dose 0.5-2.5 µM
THP-1 [8] = assay: Induction of apoptosis in human THP-1 cells assessed as change in mitochondrial membrane potential at 1 uM incubated for 48 hrs by JC-1 staining based flow cytometry (reference value: 5.15 %); format: functional
KG-1 [9] = assay: Downregulation of c-Myc expression in human KG-1 cells incubated for 48 hrs by Western blot analysis; format: functional, cell-based; details: dose 0.5-2.5 µM
THP-1 [10] = assay: Downregulation of c-Myc expression in human THP-1 cells incubated for 48 hrs by Western blot analysis; format: functional, cell-based; details: dose 0.5-2.5 µM
KG-1 [11] = assay: Upregulation of Bax expression in human KG-1 cells incubated for 48 hrs by Western blot analysis; format: functional, cell-based; details: dose 0.5-2.5 µM
SK-OV-3 [12] = assay: Induction of apoptosis in human SK-OV-3 cells assessed as late apoptotic cells at 2.5 uM incubated for 48 hrs by Annexin V-FITC/PI staining based flow cytometry (reference value: 4.51 %); format: functional
SK-OV-3 [13] = assay: Induction of apoptosis in human SK-OV-3 cells assessed as change in mitochondrial membrane potential at 2.5 uM incubated for 48 hrs by JC-1 staining based flow cytometry (reference value: 5.34 %); format: functional
U-937 [14] = assay: Induction of apoptosis in human U-937 cells assessed as viable cells at 1 uM incubated for 48 hrs by Annexin V-FITC/PI staining based flow cytometry (reference value: 93.30 %); format: functional; details: read-out: Activity
[15] = Toxicity in nude mouse xenografted with human SK-OV-3 cells assessed as histopathological change in lungs at 30 to 60 mg/kg, ip qd treated for 14 days by H and E staining based analysis; format: organism-based; details: in vivo, 336 h, dose 30-60 mg/kg, time 14 day
U-937 [16] = assay: Induction of apoptosis in human U-937 cells assessed as necrotic cells at 0.5 uM incubated for 48 hrs by Annexin V-FITC/PI staining based flow cytometry (reference value: 2.03 %); format: functional
U-937 [17] = assay: Downregulation of XIAP expression in human U-937 cells incubated for 48 hrs by Western blot analysis; format: functional, cell-based
U-937 [18] = assay: Induction of apoptosis in human U-937 cells assessed as viable cells at 0.5 uM incubated for 48 hrs by Annexin V-FITC/PI staining based flow cytometry (reference value: 93.30 %); format: functional; details: read-out: Activity
U-937 [19] = assay: Induction of apoptosis in human U-937 cells assessed as necrotic cells at 1 uM incubated for 48 hrs by Annexin V-FITC/PI staining based flow cytometry (reference value: 2.03 %); format: functional
U-937 [20] = assay: Induction of apoptosis in human U-937 cells assessed as late apoptotic cells at 1 uM incubated for 48 hrs by Annexin V-FITC/PI staining based flow cytometry (reference value: 1.96 %); format: functional
U-937 [21] = assay: Induction of apoptosis in human U-937 cells assessed as viable cells at 2.5 uM incubated for 48 hrs by Annexin V-FITC/PI staining based flow cytometry (reference value: 93.30 %); format: functional; details: read-out: Activity
U-937 [22] = assay: Downregulation of TAZ expression in human U-937 cells incubated for 48 hrs by Western blot analysis; format: functional, cell-based; details: dose 0.5-2.5 µM
U-937 [23] = assay: Induction of apoptosis in human U-937 cells assessed as change in mitochondrial membrane potential at 5 uM incubated for 48 hrs by JC-1 staining based flow cytometry (reference value: 2.20 %); format: functional
THP-1 [24] = assay: Downregulation of TAZ expression in human THP-1 cells incubated for 48 hrs by Western blot analysis; format: functional, cell-based; details: dose 0.5-2.5 µM
[25] = Toxicity in nude mouse xenografted with human SK-OV-3 cells assessed as histopathological change in spleen at 30 to 60 mg/kg, ip qd treated for 14 days by H and E staining based analysis; format: organism-based; details: in vivo, 336 h, dose 30-60 mg/kg, time 14 day
SK-OV-3 [26] = assay: Downregulation of GLI1 expression in human SK-OV-3 cells incubated for 48 hrs by Western blot analysis; format: functional, cell-based; details: dose 1-5 µM
U-937 [27] = assay: Induction of apoptosis in human U-937 cells assessed as late apoptotic cells at 2.5 uM incubated for 48 hrs by Annexin V-FITC/PI staining based flow cytometry (reference value: 1.96 %); format: functional
THP-1 [28] = assay: Downregulation of Bcl-2 expression in human THP-1 cells incubated for 48 hrs by Western blot analysis; format: functional, cell-based; details: dose 0.5-2.5 µM
U-937 [29] = assay: Induction of apoptosis in human U-937 cells assessed as necrotic cells at 2.5 uM incubated for 48 hrs by Annexin V-FITC/PI staining based flow cytometry (reference value: 2.03 %); format: functional
U-937 [30] = assay: Induction of apoptosis in human U-937 cells assessed as early apoptotic cells at 2.5 uM incubated for 48 hrs by Annexin V-FITC/PI staining based flow cytometry (reference value: 2.72 %); format: functional
U-937 [31] = assay: Upregulation of p21 expression in human U-937 cells incubated for 48 hrs by Western blot analysis; format: functional, cell-based
[32] = Toxicity in nude mouse xenografted with human SK-OV-3 cells assessed as histopathological change in heart at 30 to 60 mg/kg, ip qd treated for 14 days by H and E staining based analysis; format: organism-based; details: in vivo, 336 h, dose 30-60 mg/kg, time 14 day
SK-OV-3 [33] = assay: Antitumor activity against human SK-OV-3 cells xenografted in nude mouse assessed as tumor growth suppression at 30 to 60 mg/kg, ip qd treated for 14 days; format: functional, organism-based; details: dose 30-60 mg/kg, time 14.0 day
U-937 [34] = assay: Induction of apoptosis in human U-937 cells assessed as early apoptotic cells at 0.5 uM incubated for 48 hrs by Annexin V-FITC/PI staining based flow cytometry (reference value: 2.72 %); format: functional
U-937 [35] = assay: Induction of apoptosis in human U-937 cells assessed as early apoptotic cells at 1 uM incubated for 48 hrs by Annexin V-FITC/PI staining based flow cytometry (reference value: 2.72 %); format: functional
[36] = target: Signal transducer and activator of transcription 3 (Homo sapiens) (UniProt P40763); assay: Inhibition of STAT3 phosphorylation in human SK-OV-3 cells at 1 to 5 uM incubated for 48 hrs by Western blot analysis; format: cell-based; details: dose 1-5 µM
[37] = Toxicity in nude mouse xenografted with human SK-OV-3 cells assessed as histopathological change in liver at 30 to 60 mg/kg, ip qd treated for 14 days by H and E staining based analysis; format: organism-based; details: in vivo, 336 h, dose 30-60 mg/kg, time 14 day
[38] = target: Signal transducer and activator of transcription 3 (Homo sapiens) (UniProt P40763); assay: Inhibition of STAT3 phosphorylation in human U-937 cells at 0.5 to 2.5 uM incubated for 48 hrs by Western blot analysis; format: cell-based; details: dose 0.5-2.5 µM

Chain of Signal transducer and activator of transcription 3 (Homo sapiens) (P40763 whole entry): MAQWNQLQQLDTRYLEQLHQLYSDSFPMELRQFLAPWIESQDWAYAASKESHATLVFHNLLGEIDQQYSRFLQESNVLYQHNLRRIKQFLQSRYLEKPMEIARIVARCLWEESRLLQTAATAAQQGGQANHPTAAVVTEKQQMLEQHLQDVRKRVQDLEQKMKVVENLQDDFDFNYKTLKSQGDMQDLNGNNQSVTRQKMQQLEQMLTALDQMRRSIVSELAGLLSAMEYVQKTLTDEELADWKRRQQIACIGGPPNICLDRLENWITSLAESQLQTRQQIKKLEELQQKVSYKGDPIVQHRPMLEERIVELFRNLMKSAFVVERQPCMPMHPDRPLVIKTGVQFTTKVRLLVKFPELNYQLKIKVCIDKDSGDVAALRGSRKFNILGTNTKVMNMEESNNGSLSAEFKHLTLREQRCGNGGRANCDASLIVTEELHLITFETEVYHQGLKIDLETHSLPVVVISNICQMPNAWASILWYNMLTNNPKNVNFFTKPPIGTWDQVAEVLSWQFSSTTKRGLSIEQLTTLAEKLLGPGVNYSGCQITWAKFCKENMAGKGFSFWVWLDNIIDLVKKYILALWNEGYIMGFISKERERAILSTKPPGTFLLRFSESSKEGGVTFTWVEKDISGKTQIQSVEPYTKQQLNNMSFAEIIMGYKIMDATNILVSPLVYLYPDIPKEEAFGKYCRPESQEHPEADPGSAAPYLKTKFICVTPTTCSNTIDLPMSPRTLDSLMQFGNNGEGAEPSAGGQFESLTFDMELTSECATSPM

SMILES: CCc1nccnc1C(=O)/C=C/c1ccccn1
Activity (SK-OV-3 [1]): Dose-dependent-effect | viability at 1 µM (SK-OV-3 [2]): 71.2% | Activity (THP-1 [3]): Dose-dependent-effect | Activity (SK-OV-3 [4]): Dose-dependent-effect | Activity (KG-1 [5]): Dose-dependent-effect | Activity (KG-1 [6]): Dose-dependent-effect | Activity (KG-1 [7]): Dose-dependent-effect | Activity (THP-1 [8]): 9.01% | Activity (KG-1 [9]): Dose-dependent-effect | Activity (THP-1 [10]): Dose-dependent-effect | Activity (KG-1 [11]): Dose-dependent-effect | Activity (SK-OV-3 [12]): 23.46% | Activity (SK-OV-3 [13]): 17.88%

inhibition [36]: Active | inhibition [38]: Active
SMILES: Cc1nccnc1C(=O)/C=C/c1cccc(C#N)c1
viability at 1 µM (U-937 [14]): 76.2% | Activity [15]: Non-toxic | Activity (U-937 [16]): 2.64% | Activity (U-937 [17]): Dose-dependent-effect | viability at 1 µM (SK-OV-3 [2]): 72.4% | viability at 0.5 µM (U-937 [18]): 80.9% | Activity (U-937 [19]): 3.14% | Activity (U-937 [20]): 9.69% | viability at 2.5 µM (U-937 [21]): 75.5% | Activity (U-937 [22]): Dose-dependent-effect | Activity (U-937 [23]): 21.63% | Activity (THP-1 [8]): 7.94% | Activity (THP-1 [24]): Dose-dependent-effect | Activity [25]: Non-toxic | Activity (SK-OV-3 [26]): Dose-dependent-effect | Activity (U-937 [27]): 9.73% | Activity (THP-1 [28]): Dose-dependent-effect | Activity (U-937 [29]): 3.09% | Activity (U-937 [30]): 11.68% | Activity (U-937 [31]): Dose-dependent-effect | Activity (SK-OV-3 [12]): 26.65% | Activity (SK-OV-3 [13]): 18.87% | Activity [32]: Non-toxic | Activity (SK-OV-3 [33]): Active | Activity (U-937 [34]): 9.68% | Activity (U-937 [35]): 10.98% | Activity [37]: Non-toxic
